How the values were obtained:
Sphaerotheca fuliginea = experiment: Cucumber Powdery Mildew (CPM) protectant test in the greenhouse; type: in vivo; details: 100 is total disease control, 0 is no disease control; for Cucumber Powdery Mildew (CPM) protectant fungicide data, percent control: 300 g/ha; for pest or weed control at 300 g/ha: Podosphaera fuliginea, topical, 168 h, read-out: Cucumber Powdery Mildew (CPM) protectant fungicide data, percent control
How it was run: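 Compounds in acetone-methanol-water (1:1:2) sprayed onto cucumber cv. "Bush Champion" (cotyledons plus one true leaf, 13 days old), dried 4 h. Inoculated 1 day later with 2×10^5 spores/ml; disease control (%) rated after 7 days in greenhouse.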

Pyricularia oryzae = experiment: whole plant or invertebrate; type: in vivo; details: 100 is total disease control, 0 is no disease control; for Rice Blast (RB) protectant fungicide data, percent control: 300 g/ha, greenhouse; for pest or weed control at 300 g/ha: Pyricularia oryzae, topical, 144 h, read-out: Rice Blast (RB) protectant fungicide data, percent control, protectant, 300 g/ha, greenhouse

SMILES | Cucumber Powdery Mildew (CPM) protectant fungicide data, percent control (Sphaerotheca fuliginea) | Rice Blast (RB) protectant fungicide data, percent control (Pyricularia oryzae) | pest or weed control at 300 g/ha (Sphaerotheca fuliginea) | pest or weed control at 300 g/ha (Pyricularia oryzae)
FC(F)(F)Cn1nc(-c2cccc(Cl)c2)ncc1=S [Compound 246] | 0 percent control | 100 percent control | – | –
O=C1CNC(c2ccc(F)cc2)=NN1CC(F)(F)F [Compound 149] | 75 percent control | 95 percent control | – | –
CCCCN1N=C(c2ccc(-c3ccc(C(=O)OCC)cc3)cc2)NCC1=O [Compound 206] | 80 percent control | 85 percent control | – | –
CCCCN1N=C(c2ccc(Cl)c(Cl)c2)N(Cc2ccc(OC)c(OC)c2)CC1=O [Compound 200] | 0 percent control | 85 percent control | – | –
C#CCN1N=C(c2cccc(Br)c2)NCC1=O [Compound 227] | 75 percent control | 90 percent control | – | –
O=C1CNC(c2ccc3ccccc3c2)=NN1CC(F)(F)F [Compound 143] | 50 percent control | 98 percent control | – | –
CCC#CCn1nc(-c2ccc(Cl)cc2)nc(C)c1=O [Compound 237] | 95 percent control | 0 percent control | – | –
CCCCN1N=C(C)NC(c2c(C)cc(C)cc2C)C1=O (centres unmarked) [Compound 82] | 25 percent control | 0 percent control | – | –
CCCN1N=C(c2cc(Cl)cc(Cl)c2)NCC1=O [Compound 107] | 95 percent control | 99 percent control | – | –
N#Cc1cccc(C2=NN(CC(F)(F)F)C(=O)CN2)c1 [Compound 176] | 50 percent control | 50 percent control | – | –
C#CCSC(=S)N1CC(=O)N(CCCC)N=C1c1ccc(Cl)c(Cl)c1 [Compound 192] | 75 percent control | 99 percent control | – | –
CC=CC(=O)N1CC(=O)N(CCCC)N=C1c1ccc(Cl)c(Cl)c1 [Compound 177] | 50 percent control | 95 percent control | – | –
O=C1CNC(c2ccc(F)c(F)c2)=NN1Cc1ccccc1 [Compound 139] | 50 percent control | 99 percent control | – | –
CCCCN1N=C(c2ccc(Cl)c(Cl)c2)N(C(=O)Oc2ccccc2)CC1=O [Compound 173] | 0 percent control | 50 percent control | – | –
CCCCN1N=C(c2ccc(Cl)c(Cl)c2)N(C(=O)C2CC2)CC1=O [Compound 181] | 0 percent control | 50 percent control | – | –
O=C1CNC(c2ccc(C(F)(F)F)cc2)=NN1CC(F)(F)F [Compound 51] | 0 percent control | 90 percent control | – | –
O=C1CNC(c2cccc(C(F)(F)F)c2)=NN1CC(F)(F)F [Compound 153] | 0 percent control | 100 percent control | – | –
C=CC1NC(c2ccc(Cl)c(Cl)c2)=NN(CCCC)C1=O (centres unmarked) [Compound 202] | 0 percent control | 90 percent control | – | –
CCOC(=O)CN1N=C(c2ccc(Cl)c(Cl)c2)NCC1=O [Compound 102] | 50 percent control | 85 percent control | – | –
CCOC(=O)N1N=C(c2cccc(Cl)c2)NCC1=O [Compound 198] | 0 percent control | 80 percent control | – | –
C#CCN1CC(=O)N(CC#C)N=C1c1cccc(C(F)(F)F)c1 [Compound 87] | 0 percent control | 90 percent control | – | –
C#CCN1CC(=O)N(CC#C)N=C1c1cccc(Br)c1 [Compound 226] | 0 percent control | 50 percent control | – | –
CCCCN1N=C2C=CC(c3ccc(Cl)cc3)=NN2CC1=O [Compound 229] | – | – | 50% | 0%

SMILES | Cucumber Powdery Mildew (CPM) protectant fungicide data, percent control (Sphaerotheca fuliginea) | Rice Blast (RB) protectant fungicide data, percent control (Pyricularia oryzae) | pest or weed control at 300 g/ha (Sphaerotheca fuliginea) | pest or weed control at 300 g/ha (Pyricularia oryzae)
C#CCN1N=C(c2ccc(Cl)c(Cl)c2)NCC1=O [Compound 215] | 0 percent control | 85 percent control | – | –
CCCCN1N=C(C)NC(c2ccc(F)c(C)c2)C1=O (centres unmarked) [Compound 94] | 75 percent control | 0 percent control | – | –
COC1NC(c2cc(Cl)cc(Cl)c2)=NN(CC(F)(F)F)C1=O (centres unmarked) [Compound 18, 1-(2,2,2-Trifluoroethyl)-3-(3,5-dichlorophenyl)-5-methoxy-4,5-dihydro-1,2,4-triazin-6-one] | – | – | 75% | 95%
C#CCN1N=C(c2ccc(F)c(Br)c2)NCC1=O [Compound 218] | 80 percent control | 98 percent control | – | –
C=CC(=O)N1CC(=O)N(CCCC)N=C1c1cc(Cl)cc(Cl)c1 [Compound 138] | 0 percent control | 99 percent control | – | –
O=C1CNC(c2ccc(F)c(Br)c2)=NN1CC1CC1 [Compound 220] | 80 percent control | 100 percent control | – | –
CCCCN1N=C(c2ccc(Cl)c(Cl)c2)N(C(=S)SC)CC1=O [Compound 12, 1-n-butyl-3-(3,4-dichlorophenyl)-4-methylthiothiocarbonyl-4,5-dihydro-1,2,4-triazin-6-one] | – | – | 0% | 95%
O=C1CNC(c2ccc(Cl)cc2Cl)=NN1CC(F)(F)F [Compound 73] | 75 percent control | 85 percent control | – | –
C#CCN1N=C(c2cccc(F)c2)NCC1=O [Compound 225] | 0 percent control | 80 percent control | – | –
CCCCOc1ccc(C2=NN(CCC#N)C(=O)CN2)cc1 [Compound 160] | 0 percent control | 75 percent control | – | –
CCOC(=O)Cn1nc(-c2cccc(C)c2)ncc1=O [Compound 275] | 0 percent control | 85 percent control | – | –
CN1N=C(c2ccc(C(F)(F)F)cc2)NCC1=O [Compound 122] | 75 percent control | 75 percent control | – | –
CCCCN1N=C(c2cc(Cl)cc(Cl)c2)N(C(=O)OCI)CC1=O [Compound 16, 1-(n-butyl)-3-(3,5-dichlorophenyl)-4-(iodomethyloxycarbonyl)-4,5-dihydro-1,2,4-triazin-6-one] | – | – | 75% | 90%
O=C1CNC(c2cccc(C(F)(F)F)c2)=NN1CC1CC1 [Compound 86] | 80 percent control | 99 percent control | – | –
CCCCCn1nc(-c2cc(Cl)c(C)c(Cl)c2)ncc1=O [Compound 257] | 50 percent control | 95 percent control | – | –
O=C1CNC(c2cccc(F)c2)=NN1CC1CC1 [Compound 223] | 80 percent control | 95 percent control | – | –
CN1N=C(c2ccccc2)NCC1=O [Compound 31] | 0 percent control | 50 percent control | – | –
N#CCN1N=C(c2ccc(Cl)cc2)NCC1=O [Compound 60] | 0 percent control | 75 percent control | – | –
CCCCN1N=C(c2ccccc2O)NCC1=O [Compound 83, 1-n-Butyl-3-(2-hydroxyphenyl)-4,5-dihydro-1,2,4-triazin-6-one] | – | – | 0% | 80%
C#CCN1CC(=O)N(CCCC)N=C1c1ccc(Cl)c(Cl)c1 [Compound 168] | 50 percent control | 95 percent control | – | –
CCCCN1N=C(c2ccc(Oc3ccccc3)cc2)NCC1=O [Compound 3, 1-Butyl-3-(4-phenoxyphenyl)-4,5-dihydro-1,2,4-triazin-6-one] | – | – | 0% | 80%
Cc1cccc(N2N=C(c3ccc(-c4ccccc4)cc3)NCC2=O)c1 [Compound 186] | 0 percent control | 85 percent control | – | –
Cc1ccccc1-c1nn(CC(F)(F)F)c(=O)c(=O)[nH]1 [Compound 291] | – | – | 0% | 80%

— patent US7494996B2 (priority 2000, dated 2009)
